How the values were obtained:
[1] = target: T1, c-Kit(V654A) (Homo sapiens, UniProt P10721, V654A); experiment: c-Kit(V654A) assay (33P-ATP filter binding kinase assay); type: biochemical; conditions: recombinant human c-Kit aa 544-end V654A, ATP 200 μM
T1 construct: recombinant human c-Kit, amino acids 544-end containing the V654A mutation; GST (N)
How it was run: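 Radiometric filter-binding read-out: substrate 33P incorporation counted by scintillation after P30 filtermat washes in 75 mM phosphoric acid and methanol. Enzyme: N-GST recombinant human c-Kit aa 544-end carrying V654A.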

[2] = target: T2, GIST430/654 cell line expressing mutated constitutively active cKIT receptor tyrosine kinase (Δ560-576 deletion and V654A point mutation) (Homo sapiens, UniProt P10721, DEL560-576/V654A); experiment: Cellular cKIT autophosphorylation (phospho-Y307-cKIT, Luminex bead assay) in GIST430/654 cells; type: cell-based; conditions: compounds 45 min, read-out: GIST 430/654 IC50
T2 construct: endogenous in cells; host or cells: GIST430/654 cells
How it was run: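 Phospho-Y307 cKIT in lysates was measured on a Luminex bead assay, with total-cKIT capture overnight at 4 °C and phosphospecific plus PE secondary detection. Cells had 45 min exposure to a compound dilution series the day after plating: GIST430 (Δ560-576) or GIST430/654 (Δ560-576/V654A, grown with 100 nM imatinib). IC50 values are relative to 0.3% DMSO-treated cells.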

[3] = target: T3, GIST430 cell line expressing constitutive active cKIT receptor tyrosine kinase (Δ560-576 deletion) (Homo sapiens, UniProt P10721, DEL560-576); experiment: Cellular cKIT autophosphorylation (phospho-Y307-cKIT, Luminex bead assay) in GIST430 cells; type: cell-based; conditions: cKIT autophosphorylation, GIST430 cells, compounds 45 min; read-out: GIST 430 IC50
T3 construct: endogenous in cells; host or cells: GIST430 cells
Protocol: Assay Principle for Cellular Testing of cKIT Mutant Inhibitors
The GIST430 cell line expressing constitutive active cKIT receptor tyrosine kinase (Δ560-576 deletion) and the Imatinib resistant GIST430/654 cell line expressing mutated constitutively active cKIT receptor tyrosine kinase (Δ560-576 deletion and V654A point mutation) were employed for assessing cellular potency of compounds. Cellular activity of mutant cKIT was determined by the degree of cKIT autophosphorylation at tyrosine 307 using a Luminex-based bead assay. GIST430 cells were plated with 22,000 cells per well of a 96-well plate in 100 μl medium (85% IMDM/15% FCS) and GIST430/654 cells were plated with 25,000 cells per well of a 96-well plate in 100 μl medium (85% IMDM/15% FCS supplemented with 100 nM Imatinib). At the following day compounds were added in a serial dilution for 45 min. Then, cells were lysed with 90 μl lysis buffer (20 mM Hepes pH 7.5, 200 mM NaCl, 1.5 mM MgCl2×6H2O, 0.4 mM EDTA, 1% Triton-X-100, 1% Phosphatase-Inhibitor II, 20 mM β-Glycerolphosphat, 0.1% Protease-Inhibitor Cocktail III, 0.01% Benzonase) and lysates were cleared by centrifugation through a 96-well filter plate (0.65 μm). Samples were incubated with Luminex-beads which were coupled with an anti-total cKIT antibody overnight at 4° C. under gentle agitation. For detection of phospho-Y307-cKIT a phosphospecific antibody and a species-specific PE-labeled secondary antibody were added. The amount of phospho-Y307-cKIT was determined in a Luminex 200 instrument measuring 100 events per well within 60 seconds.
Counts from samples treated with compounds were calculated as percent of control from solvent treated (0.3% DMSO) samples. Dose-response curves were fitted and IC50 values were determined using Genedata Screener software.

[4] = Determination of Efflux-Ratio (ER) in Caco-2 cells; conditions: human, Caco-2, pH 7.4
Protocol: Determination of Efflux-Ratio (ER) in Caco-2 Cells
The efflux ratio of the test compounds was determined in Caco-2 human epithelial colorectal adenocarcinoma cell line (TC7 clone) using calculation of apparent permeability (Papp). Cell monolayers were differentiated in vitro for 14 days before the experiment. Subsequently, the test compound (in HBSS pH 7.4 at 1 μM final concentration) was applied on the donor side while HBSS buffer (pH 7.4) was added to the receiver wells. […] The plate was then incubated in a 5% CO2 incubator (37° C., 100% humidity). At the end of the 2 hours incubation period, 50 μL sample was removed from both donor and receiver wells and diluted 1:1 with equal volumes of acetonitrile for LC-MS/MS analysis. The LC-MS/MS analysis used a one-point calibration method from a 1 μM standard solution diluted 1:1 with equal volume of acetonitrile (consistent to the test samples).
The data was used to calculate the apparent permeabilities of the compounds in both apical to basolateral (Papp,AB) and basolateral to apical (Papp,BA) directions at 1 μM concentration in duplicate. The Papp values were calculated from the concentrations in the donor and receiver compartments using the following formula:
Efflux ratio was calculated according to the following formula:

T3 sequence (P10721 with tags, fused parts or gaps DEL560-576): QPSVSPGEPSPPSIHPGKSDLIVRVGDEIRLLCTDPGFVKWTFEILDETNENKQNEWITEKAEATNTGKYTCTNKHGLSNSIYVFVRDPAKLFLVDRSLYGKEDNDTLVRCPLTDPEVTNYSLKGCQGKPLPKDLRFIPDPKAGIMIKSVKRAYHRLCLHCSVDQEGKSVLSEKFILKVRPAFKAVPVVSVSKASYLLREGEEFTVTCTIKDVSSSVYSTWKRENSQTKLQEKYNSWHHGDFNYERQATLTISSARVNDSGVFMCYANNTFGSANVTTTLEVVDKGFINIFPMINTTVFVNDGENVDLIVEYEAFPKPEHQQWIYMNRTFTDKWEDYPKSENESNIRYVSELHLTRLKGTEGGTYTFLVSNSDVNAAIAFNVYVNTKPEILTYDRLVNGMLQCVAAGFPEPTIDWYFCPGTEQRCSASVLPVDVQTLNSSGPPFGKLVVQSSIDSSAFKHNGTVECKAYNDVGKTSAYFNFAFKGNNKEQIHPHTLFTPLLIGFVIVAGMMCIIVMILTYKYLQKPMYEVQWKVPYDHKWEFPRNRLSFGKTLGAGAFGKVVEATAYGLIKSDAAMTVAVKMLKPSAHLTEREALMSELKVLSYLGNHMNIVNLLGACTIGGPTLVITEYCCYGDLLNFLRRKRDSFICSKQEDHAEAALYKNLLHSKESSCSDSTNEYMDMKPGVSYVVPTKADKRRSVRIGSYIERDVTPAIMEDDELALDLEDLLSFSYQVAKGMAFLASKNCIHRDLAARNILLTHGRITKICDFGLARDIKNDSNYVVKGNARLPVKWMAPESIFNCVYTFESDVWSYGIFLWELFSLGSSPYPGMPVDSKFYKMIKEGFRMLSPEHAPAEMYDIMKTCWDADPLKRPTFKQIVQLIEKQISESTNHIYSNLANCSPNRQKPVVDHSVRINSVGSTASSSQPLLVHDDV
T1 sequence (P10721 544-976 V654A): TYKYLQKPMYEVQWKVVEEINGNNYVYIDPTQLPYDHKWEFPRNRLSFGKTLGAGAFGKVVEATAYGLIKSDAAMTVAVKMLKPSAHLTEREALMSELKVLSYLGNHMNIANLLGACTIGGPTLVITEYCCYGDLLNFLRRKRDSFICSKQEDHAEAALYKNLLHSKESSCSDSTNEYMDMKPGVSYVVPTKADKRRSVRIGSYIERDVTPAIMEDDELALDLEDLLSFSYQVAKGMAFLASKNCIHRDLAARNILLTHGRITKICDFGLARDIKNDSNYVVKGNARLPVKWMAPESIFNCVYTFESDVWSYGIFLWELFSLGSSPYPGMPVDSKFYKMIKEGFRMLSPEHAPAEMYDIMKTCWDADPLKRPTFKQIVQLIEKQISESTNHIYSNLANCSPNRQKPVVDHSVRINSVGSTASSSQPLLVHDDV
T2 sequence (P10721 with tags, fused parts or gaps DEL560-576/V654A): as the sequence (P10721 with tags, fused parts or gaps DEL560-576) above, with V612A counted along it

| SMILES | IC50 [1] | IC50 [2] | IC50 [3] | efflux ratio at 2 h, 1 μM [4] |
| --- | --- | --- | --- | --- |
| CO[C@@H]1CCN(c2ccc(CNc3cc(-c4cnc5ccccn45)ncn3)cn2)C1 [A146, 6-{imidazo[1,2-a]pyridin-3-yl}-N-({6-[(3R)-3-methoxypyrrolidin-1-yl]pyridin-3-yl}methyl)pyrimidin-4-amine] | 7 nM | 340 nM | 48 nM | < 15 |
| c1ccn2c(-c3cc(NCc4ccc(N5CCCC5)nc4)ncn3)cnc2c1 [A147, (6-imidazo[1,2-a]pyridin-3-yl-pyrimidin-4-yl)-(6-pyrrolidin-1-yl-pyridin-3-ylmethyl)-amine] | 5.4 nM | 430 nM | 7.3 nM | < 15 |
| FC1(F)CCN(c2ccc(CNc3cc(-c4cnc5ccccn45)ncn3)cn2)C1 [A150, [6-(3,3-difluoro-pyrrolidin-1-yl)-pyridin-3-ylmethyl]-(6-imidazo[1,2-a]pyridin-3-yl-pyrimidin-4-yl)-amine] | 8.9 nM | 140 nM | 12 nM | < 15 |
| CO[C@H]1CCN(c2ccc(CNc3cc(-c4cnc5ccccn45)ncn3)cn2)C1 [A151, 6-{imidazo[1,2-a]pyridin-3-yl}-N-({6-[(3S)-3-methoxypyrrolidin-1-yl]pyridin-3-yl}methyl)pyrimidin-4-amine] | 15 nM | 300 nM | 9.9 nM | < 15 |
| Cn1cc(-c2ccc(CNc3cc(-c4cnc5cc(OCCO)ccn45)ncn3)cc2)cn1 [A172, 2-({3-[6-({[4-(1-methyl-1H-pyrazol-4-yl)phenyl]methyl}amino)pyrimidin-4-yl]imidazo[1,2-a]pyridin-7-yl}oxy)ethan-1-ol] | 6.3 nM | 75 nM | 2.7 nM | < 15 |
| Cn1cc(-c2ccc(CNc3cc(-c4cnc5cc(N6CCCC6)ccn45)ncn3)cc2)cn1 [A177, [4-(1-methyl-1H-pyrazol-4-yl)-benzyl]-[6-(7-pyrrolidin-1-yl-imidazo[1,2-a]pyridin-3-yl)-pyrimidin-4-yl]-amine] | 17 nM | 34 nM | 15 nM | < 15 |
| Cn1cc(-c2ccc(CNc3cc(-c4cnc5cc(N6CCC(CCO)C6)ccn45)ncn3)cc2)cn1 (stereo not shown) [A178, 2-[1-(3-{6-[4-(1-methyl-1H-pyrazol-4-yl)-benzylamino]-pyrimidin-4-yl}-imidazo[1,2-a]pyridin-7-yl)-pyrrolidin-3-yl]-ethanol] | 19 nM | 47 nM | 3.8 nM | < 15 |
| Cn1ncc(-c2ccc(CNc3cc(-c4cnc5cc(OCCCN6CCN(C7COC7)CC6)ccn45)ncn3)cc2)n1 [A185, [4-(2-methyl-2H-[1,2,3]triazol-4-yl)-benzyl]-(6-{7-[3-(4-oxetan-3-yl-piperazin-1-yl)-propoxy]-imidazo[1,2-a]pyridin-3-yl}-pyrimidin-4-yl)-amine] | 6.7 nM | 59 nM | 1.3 nM | < 15 |
| Cn1cc(-c2ccc(CNc3cc(-c4cnc5cc(OCCN6CCn7nncc7C6)ccn45)ncn3)cc2)cn1 [A217, (6-{7-[2-(6,7-dihydro-4H-[1,2,3]triazolo[1,5-a]pyrazin-5-yl)-ethoxy]-imidazo[1,2-a]pyridin-3-yl}-pyrimidin-4-yl)-[4-(1-methyl-1H-pyrazol-4-yl)-benzyl]-amine] | 7.8 nM | 76 nM | 4.4 nM | 15 to 50 |
| Cn1cc(-c2ccc(CNc3cc(-c4cnc5cc(OCCCN[C@@H]6CCOC6)ccn45)ncn3)cc2)cn1 [A260, N-{[4-(1-methyl-1H-pyrazol-4-yl)phenyl]methyl}-6-[7-(3-{[(3R)-oxolan-3-yl]amino}propoxy)imidazo[1,2-a]pyridin-3-yl]pyrimidin-4-amine] | 6 nM | 43 nM | 1.9 nM | 15 to 50 |

These reach a lower IC50 [1]. Values come first.

| IC50 [1] | IC50 [2] | IC50 [3] | efflux ratio at 2 h, 1 μM [4] | SMILES |
| --- | --- | --- | --- | --- |
| 3.3 nM | 40 nM | 1.5 nM | < 15 | Cn1ncc(-c2ccc(CNc3cc(-c4cnc5cc(OCCN6CC7(COC7)C6)ccn45)ncn3)cc2)n1 [A108, [4-(2-methyl-2H-[1,2,3]triazol-4-yl)-benzyl]-(6-{7-[2-(2-oxa-6-aza-spiro[3.3]hept-6-yl)-ethoxy]-imidazo[1,2-a]pyridin-3-yl}-pyrimidin-4-yl)-amine] |
| 4.9 nM | 220 nM | 7.3 nM | < 15 | F[C@H]1CCN(c2ccc(CNc3cc(-c4cnc5ccccn45)ncn3)cn2)C1 [A148, N-({6-[(3S)-3-fluoropyrrolidin-1-yl]pyridin-3-yl}methyl)-6-{imidazo[1,2-a]pyridin-3-yl}pyrimidin-4-amine] |
| 3.7 nM | 57 nM | 22 nM | < 15 | Cn1ncc(-c2ccc(CNc3cc(-c4cnc5cc(OCCO)ccn45)ncn3)cc2)n1 [A173, 2-({3-[6-({[4-(2-methyl-2H-1,2,3-triazol-4-yl)phenyl]methyl}amino)pyrimidin-4-yl]imidazo[1,2-a]pyridin-7-yl}oxy)ethan-1-ol] |
| 5.1 nM | 56 nM | 2.7 nM | < 15 | Cn1cc(-c2ccc(CNc3cc(-c4cnc5cc(OCCCNC6COC6)ccn45)ncn3)cc2)cn1 [A258, N-{[4-(1-methyl-1H-pyrazol-4-yl)phenyl]methyl}-6-(7-{3-[(oxetan-3-yl)amino]propoxy}imidazo[1,2-a]pyridin-3-yl)pyrimidin-4-amine] |
| 3.8 nM | 33 nM | 1.8 nM | < 15 | Cn1ncc(-c2ccc(CNc3cc(-c4cnc5cc(OCCCNC6COC6)ccn45)ncn3)cc2)n1 [A259, N-{[4-(2-methyl-2H-1,2,3-triazol-4-yl)phenyl]methyl}-6-(7-{3-[(oxetan-3-yl)amino]propoxy}imidazo[1,2-a]pyridin-3-yl)pyrimidin-4-amine] |
| 2.1 nM | 54 nM | 1.4 nM | < 15 | Cc1nc(-c2ccc(CNc3cc(-c4cnc5cc(OCCN6CCC(=O)N(C)CC6)ccn45)ncn3)cc2)co1 [A261, 4-methyl-1-[2-({3-[6-({[4-(2-methyl-1,3-oxazol-4-yl)phenyl]methyl}amino)pyrimidin-4-yl]imidazo[1,2-a]pyridin-7-yl}oxy)ethyl]-1,4-diazepan-5-one] |
| 5 nM | 73 nM | 4.4 nM | < 15 | Cn1cc(-c2ccc(CNc3cc(-c4cnc5cc(OCCCN6CCC(C)(F)CC6)ccn45)ncn3)cc2)cn1 [A262, 6-{7-[3-(4-fluoro-4-methylpiperidin-1-yl)propoxy]imidazo[1,2-a]pyridin-3-yl}-N-{[4-(1-methyl-1H-pyrazol-4-yl)phenyl]methyl}pyrimidin-4-amine] |
| 2.3 nM | 66 nM | 4.3 nM | < 15 | CC1(F)CCN(CCCOc2ccn3c(-c4cc(NCc5ccc(-c6cocn6)cc5)ncn4)cnc3c2)CC1 [A263, 6-{7-[3-(4-fluoro-4-methylpiperidin-1-yl)propoxy]imidazo[1,2-a]pyridin-3-yl}-N-{[4-(1,3-oxazol-4-yl)phenyl]methyl}pyrimidin-4-amine] |
| 1.6 nM | 36 nM | 1.1 nM | 15 to 50 | Cc1nc(-c2ccc(CNc3cc(-c4cnc5cc(OCCN6CCn7nncc7C6)ccn45)ncn3)cc2)co1 [A264, N-{[4-(2-methyl-1,3-oxazol-4-yl)phenyl]methyl}-6-[7-(2-{4H,5H,6H,7H-[1,2,3]triazolo[1,5-a]pyrazin-5-yl}ethoxy)imidazo[1,2-a]pyridin-3-yl]pyrimidin-4-amine] |

Reference: patent publication US12655142B2 (Merck Patent GmbH, priority 2019, dated 2026)
